# Data: US8008260B2, “Methods of protecting against apoptosis using lipopeptides” (Cleveland Clinic Foundation, priority 2005, dated 2011)
# Peptide text beside a SMILES is read from it. * marks the point of attachment. Propyl(2R-PamO,3-PamO) = CCCCCCCCCCCCCCCC(=O)OC[C@H](C*)OC(=O)CCCCCCCCCCCCCCC; X1 = CCCCCCCCCCCCCCCC(=O)OCC(C*)OC(=O)CCCCCCCCCCCCCCC
# Legend:
# [1] = Solubility of the lipopeptides
# TLR2/TLR6 heterodimer = target: T1, TLR2/TLR6 heterodimer (Homo sapiens, UniProt O60603+Q9Y2C9); assay: NF-κB-dependent reporter activity in 293 cells expressing the TLR2/TLR6 heterodimer; format: cell-based; design: NF-κB activation: scale not given here; conditions: for NF-κB activation: in vitro activity, 293 cells expressing TLR2/TLR6; for activation of the NF-κB reporter (in words, compared with CBLB601): 293 cells expressing TLR2/TLR6, various doses
# T1 construct: expressed in transfected cells; host or cells: 293 cells
# Description: NF-κB-dependent reporter activity was measured in 293 cells that expressed the TLR2/YLR6 heterodimer. […] None of the non-palmitoylated corresponding peptides activated the NF-κB reporter (FIG. 18B). The peptide component of CBLB617 has a (−4) charge, which should prevent it from interacting with negatively charged cell surface markers. […] Table 5 summarizes the in vitro activity and solubility of all the compounds.
# ICR mice = assay: Radioprotection against total body gamma irradiation (TBI), 30-day survival; format: in vivo; conditions: for toxicity in combination with radiation: i.m. 24 hours before 10 Gy TBI; for rank of radioprotective potency: i.m. 24 hrs before 10 Gy TBI
# Source text: CBLB601, a R-Pam2-lipopeptide with the peptide moiety consisting of C-SKKKK (SEQ ID NO: 8), was selected for more detailed characterization as a radioprotector based upon its ability to activate NF-κB and preliminary in vivo data on radioprotection in NIH-SWISS mice (see Example 2). The objectives of this study were to determine the optimal dose, route of administration, and time of administration of CBLB601 to serve as a protector. ICR female mice of 10-15 weeks of age were used, with 10-15 animals per group or condition.
# The optimal intraperitoneal administration schedule of CBLB601 was determined by injecting the compound at different times prior to irradiation. […] Therefore, all of the optimization experiments were performed with 10 Gy of total body irradiation (TBI). A dose of 3 μg of BCLB601/mouse (1/10 NOAEL) was chosen as the starting dose. Thus, 3 μg of CBLB601 was injected i.p. into ICR mice at 0.5 h, 1 h, 6 h, and 24 h or 1 h, 24 h, 48 h, 72 h, 96 h prior to 10 Gy of TBI (as described in Example 1). […] Injection of CBLB601 24 hrs before irradiation clearly yielded the best radioprotection (90-100% 30-day survival). When the compound was administered 48 hrs before irradiation, the radioprotection was ˜30%. Administration of CBLB601 at 1 hr prior to irradiation produced inconsistent results ranging from 80% protection in one experiment (FIG. 5B) to almost no protection (20%) in another experiment (FIG. 5A).
# To determine the optimal radioprotective dose of CBLB601, the timing of injection and level of irradiation were kept constant, while the dose of CBLB601 was varied. ICR mice were injected i.p. with 1, 3, 10, 20, or 30 μg of CBLB601/mouse or 0.1, 0.3, 1, 3, 10, or […] 24 hrs prior to irradiation (10 Gy of TBI), and their survival was monitored for 30 days. The best protective dose was 3 μg/mouse, which supported a survival of 100% (FIGS. 6 A and B). […] Thus, the optimal protective dose of CBLB601 was determined to be 3 μg/mouse.
# To determine the level of radiation that was protected by CBLB601, radioprotectant-treated and control mice were exposed to increasing levels of TBI. Groups of ICR mice were injected i.p. with either 3 μg CBLB601/mouse or PBS, and then 24 h later they received 10, 11, 12, 13, 14, and 15 Gy doses of TBI. Survival was recorded over 30 days. […] All of the mice irradiated with 10-11 Gy of TBI died between days 12-14 post irradiation, which was typical for death due to hematopoietic failure. All of the mice that received 14-15 Gy of TBI died between days 7-9 post irradiation, which was typical for mortality due to radiation-induced intestinal damage. Mice that were irradiated with 12-13 Gy of TBI died at intermediate times, which was typical for a mixed etiology of radiation-induced mortality. […] To reach a statistically significant 10% difference between control and CBLB601-treated mice, experimental groups of at least 50 mice must be used. Although CBLB601 rescued 100% of mice from 10 Gy of TBI, its protection at 11 Gy of TBI was only 20%. […] This may be indicative of a combined toxicity of the drug and the irradiation.
# CBLB601 was administered intramuscularly to determine the optimal route of administration of this compound (especially since this would be the preferred route of administration for humans). […] In another experiment, increasing doses of CBLB601 administered i.m. were tested against 10, 11, and 12 Gy doses of […] (FIG. 9). […] A summary of the dose-dependency of the radioprotection of […] administered i.p. or i.m. 24 h prior to 10 Gy of TBI is shown in FIG. 10.
# The optimal schedule of intramuscular administration of CBLB601 was determined by varying the time between drug delivery and irradiation. ICR mice were injected i.m. with 3 μg of CBLB601/mouse 24 h, 6 h, 3 h, and 1 h prior to TBI and +1 h, +3 h after TBI (FIG. 12A), as well as 48 h, 36 h, 24 h, 12 h, and 6 h prior to TBI (FIG. 12B). […]
# T1 sequence (O60603 21-784): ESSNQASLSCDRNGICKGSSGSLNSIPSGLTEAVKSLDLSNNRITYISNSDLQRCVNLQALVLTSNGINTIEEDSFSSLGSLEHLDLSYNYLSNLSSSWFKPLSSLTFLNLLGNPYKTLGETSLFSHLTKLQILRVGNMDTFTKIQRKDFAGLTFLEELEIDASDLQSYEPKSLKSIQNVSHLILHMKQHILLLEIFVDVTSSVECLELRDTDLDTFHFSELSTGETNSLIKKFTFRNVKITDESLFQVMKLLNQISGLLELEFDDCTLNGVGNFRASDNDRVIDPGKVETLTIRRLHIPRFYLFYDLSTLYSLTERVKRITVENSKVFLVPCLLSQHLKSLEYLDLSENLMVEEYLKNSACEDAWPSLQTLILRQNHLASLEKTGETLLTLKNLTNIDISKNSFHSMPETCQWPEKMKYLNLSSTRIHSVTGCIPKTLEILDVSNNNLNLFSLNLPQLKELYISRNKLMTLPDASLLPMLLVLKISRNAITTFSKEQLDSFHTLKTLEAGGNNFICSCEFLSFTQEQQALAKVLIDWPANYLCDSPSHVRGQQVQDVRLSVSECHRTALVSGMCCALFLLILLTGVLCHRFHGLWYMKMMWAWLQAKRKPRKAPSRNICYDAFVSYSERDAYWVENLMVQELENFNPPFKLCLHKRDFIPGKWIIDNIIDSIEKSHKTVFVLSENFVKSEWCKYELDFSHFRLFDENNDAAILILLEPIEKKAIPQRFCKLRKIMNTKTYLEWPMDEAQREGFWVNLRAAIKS
# T1 sequence (Q9Y2C9 32-796): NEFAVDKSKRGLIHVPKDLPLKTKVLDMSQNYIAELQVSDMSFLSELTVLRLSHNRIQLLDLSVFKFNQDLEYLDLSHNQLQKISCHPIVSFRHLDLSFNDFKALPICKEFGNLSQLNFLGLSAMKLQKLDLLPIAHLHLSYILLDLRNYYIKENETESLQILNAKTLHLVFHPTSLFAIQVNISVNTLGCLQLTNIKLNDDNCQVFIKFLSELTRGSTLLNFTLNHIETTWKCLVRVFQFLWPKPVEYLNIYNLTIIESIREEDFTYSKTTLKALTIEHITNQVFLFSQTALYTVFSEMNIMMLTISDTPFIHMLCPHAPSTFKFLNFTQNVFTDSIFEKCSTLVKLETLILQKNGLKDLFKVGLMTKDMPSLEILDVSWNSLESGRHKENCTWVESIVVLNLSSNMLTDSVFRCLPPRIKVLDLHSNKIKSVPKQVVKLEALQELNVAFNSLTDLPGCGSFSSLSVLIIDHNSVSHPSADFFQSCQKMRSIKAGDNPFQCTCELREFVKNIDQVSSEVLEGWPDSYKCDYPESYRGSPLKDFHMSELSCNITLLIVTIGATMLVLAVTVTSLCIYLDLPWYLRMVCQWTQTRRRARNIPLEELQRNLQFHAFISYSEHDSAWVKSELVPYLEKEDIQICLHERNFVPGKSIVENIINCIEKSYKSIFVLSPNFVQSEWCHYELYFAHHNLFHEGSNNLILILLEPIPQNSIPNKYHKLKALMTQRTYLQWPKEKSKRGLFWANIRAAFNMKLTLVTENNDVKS
SMILES,Solubility [1],NF-κB activation (TLR2/TLR6 heterodimer),"activation of the NF-κB reporter (in words, compared with CBLB601) (TLR2/TLR6 heterodimer)",also measured
CCCCCCCCCCCCCCCC(=O)OCC(CSC[C@H](N)C(=O)NCC(=O)N[C@@H](CCC(N)=O)C(=O)N[C@@H](Cc1c[nH]cn1)C(=O)N[C@@H](Cc1c[nH]cn1)C(=O)N[C@@H](Cc1c[nH]cn1)C(=O)O)OC(=O)CCCCCCCCCCCCCCC (stereo partly shown) [CBLB602] (H-C(X1)GQHHH-OH),Poor,0,,
CCCCCCCCCCCCCCCC(=O)OCC(CSC[C@H](N)C(=O)NCC(=O)N[C@@H](CCC(N)=O)C(=O)N[C@@H](Cc1c[nH]cn1)C(=O)N[C@@H](Cc1c[nH]cn1)C(=O)N[C@@H](CCSC)C(=O)O)OC(=O)CCCCCCCCCCCCCCC (stereo partly shown) [CBLB603] (H-C(X1)GQHHM-OH),Poor,0,,
CCCCCCCCCCCCCCCC(=O)OCC(CSC[C@H](N)C(=O)NCC(=O)N[C@@H](CO)C(=O)N[C@@H](Cc1c[nH]cn1)C(=O)N[C@@H](Cc1c[nH]cn1)C(=O)N[C@@H](CCSC)C(=O)O)OC(=O)CCCCCCCCCCCCCCC (stereo partly shown) [CBLB604] (H-C(X1)GSHHM-OH),Poor,0,,
CCCCCCCCCCCCCCCC(=O)OCC(CSC[C@H](N)C(=O)N[C@@H](CO)C(=O)N[C@@H](CCC(N)=O)C(=O)N[C@@H](CCSC)C(=O)N[C@@H](Cc1c[nH]cn1)C(=O)N[C@@H](Cc1c[nH]cn1)C(=O)O)OC(=O)CCCCCCCCCCCCCCC (stereo partly shown) [CBLB605] (H-C(X1)SQMHH-OH),Poor,2,,
"CCCCCCCCCCCCCCCC(=O)OC[C@H](CSC[C@H](N)C(=O)NCC(=O)N[C@@H](CC(=O)O)C(=O)N1CCC[C@H]1C(=O)N[C@@H](CCCCN)C(=O)N[C@@H](Cc1c[nH]cn1)C(=O)N1CCC[C@H]1C(=O)N[C@@H](CCCCN)C(=O)N[C@@H](CO)C(=O)N[C@@H](Cc1ccccc1)C(=O)O)OC(=O)CCCCCCCCCCCCCCC [CBLB606] (H-C(Propyl(2R-PamO,3-PamO))GDPKHPKSF-OH; C-terminus assumed)",Poor,100,,
CCCCCCCCCCCCCCCC(=O)OCC(CSC[C@H](N)C(=O)NCC(=O)N[C@@H](CC(=O)O)C(=O)N1CCC[C@H]1C(=O)N[C@@H](CCCCN)C(=O)N[C@@H](Cc1c[nH]cn1)C(=O)N1CCC[C@H]1C(=O)N[C@@H](CCCCN)C(=O)N[C@@H](CO)C(=O)N[C@@H](Cc1ccccc1)C(=O)N[C@H](C(=O)NCC(=O)N[C@@H](Cc1c[nH]c2ccccc12)C(=O)N[C@H](C(=O)N[C@@H](C)C(=O)O)C(C)C)[C@@H](C)O)OC(=O)CCCCCCCCCCCCCCC (stereo partly shown) [CBLB607] (H-C(X1)GDPKHPKSFTGWVA-OH),Poor,2,,
CCCCCCCCCCCCCCCC(=O)OCC(CSC[C@H](N)C(=O)N[C@@H](Cc1ccccc1)C(=O)N[C@@H](CCC(=O)O)C(=O)N1CCC[C@H]1C(=O)N1CCC[C@H]1C(=O)N1CCC[C@H]1C(=O)N[C@@H](C)C(=O)N[C@H](C(=O)N[C@H](C(=O)N[C@H](C(=O)N[C@@H](CCCCN)C(=O)N[C@@H](CO)C(=O)N[C@@H](CCCCN)C(=O)O)[C@@H](C)O)[C@@H](C)O)[C@@H](C)O)OC(=O)CCCCCCCCCCCCCCC (stereo partly shown) [CBLB608] (H-C(X1)FEPPPATTTKSK-OH),Excellent,2,,
CCCCCCCCCCCCCCCC(=O)OCC(CSC[C@H](N)C(=O)NCC(=O)N[C@@H](CCC(=O)O)C(=O)N[C@H](C(=O)N[C@@H](CC(=O)O)C(=O)N[C@@H](CCCCN)C(=O)N[C@@H](CCC(=O)O)C(=O)NCC(=O)N[C@@H](CCCCN)C(=O)N[C@H](C(=O)N[C@H](C(=O)N[C@@H](CCCNC(=N)N)C(=O)N[C@H](C(=O)N[C@@H](Cc1ccccc1)C(=O)N[C@@H](CC(=O)O)C(=O)N[C@@H](CC(N)=O)C(=O)N[C@@H](CO)C(=O)N[C@@H](Cc1ccccc1)C(=O)O)[C@@H](C)CC)[C@@H](C)CC)[C@@H](C)CC)[C@@H](C)O)OC(=O)CCCCCCCCCCCCCCC (stereo partly shown) [CBLB611] (H-C(X1)GETDKEGKIIRIFDNSF-OH),,0,,
"CCCCCCCCCCCCCCCC(=O)OC[C@H](CSC[C@H](N)C(=O)NCC(=O)N[C@@H](CCC(=O)O)C(=O)N[C@H](C(=O)N[C@@H](CC(=O)O)C(=O)N[C@@H](CCCCN)C(=O)O)[C@@H](C)O)OC(=O)CCCCCCCCCCCCCCC [CBLB613] (H-C(Propyl(2R-PamO,3-PamO))GETDK-OH)",Soluble,200,comparable to that of CBLN601,"protection (30-day survival) (ICR mice; doses of 10, 30 and 82.5 μg/mouse i.m. 24 hours before 10 Gy TBI): 100%; toxicity in combination with radiation (ICR mice): non-toxic in combination with the radiation; radioprotector quality compared with CBLB601 (ICR mice; mouse, in vivo): significantly better radioprotectors than CBLB601; therapeutic index (ICR mice; summary of Example 5): ~20"
"CCCCCCCCCCCCCCCC(=O)OC[C@H](CSC[C@H](N)C(=O)N[C@@H](CCC(N)=O)C(=O)NCC(=O)N[C@@H](CCC(=O)O)C(=O)N[C@@H](CCC(=O)O)C(=O)N[C@@H](CO)C(=O)N[C@@H](CC(N)=O)C(=O)N[C@@H](CC(=O)O)C(=O)N[C@@H](CCCCN)C(=O)O)OC(=O)CCCCCCCCCCCCCCC [CBLB614] (H-C(Propyl(2R-PamO,3-PamO))QGEESNDK-OH)",Soluble,200,better activators than CBLB601,toxicity in combination with radiation (ICR mice): no toxicity in combination with radiation; rank of radioprotective potency (ICR mice): CBLB612>CBLB614>CBLB615
"CCCCCCCCCCCCCCCC(=O)OC[C@H](CSC[C@H](N)C(=O)NCC(=O)N[C@@H](CCC(=O)O)C(=O)N[C@@H](CCC(=O)O)C(=O)N[C@@H](CO)C(=O)N[C@@H](CC(N)=O)C(=O)O)OC(=O)CCCCCCCCCCCCCCC [CBLB615] (H-C(Propyl(2R-PamO,3-PamO))GEESN-OH)",Soluble,200,better activators than CBLB601,toxicity in combination with radiation (ICR mice): no toxicity in combination with radiation; rank of radioprotective potency (ICR mice): CBLB612>CBLB614>CBLB615
"CCCCCCCCCCCCCCCC(=O)OC[C@H](CSC[C@H](N)C(=O)NCC(=O)N[C@@H](CCC(=O)O)C(=O)N[C@@H](CCC(=O)O)C(=O)N[C@@H](CC(=O)O)C(=O)N[C@@H](CC(=O)O)C(=O)O)OC(=O)CCCCCCCCCCCCCCC [CBLB617] (H-C(Propyl(2R-PamO,3-PamO))GEEDD-OH)",Soluble,100,comparable to that of CBLB601,"survival (ICR mice; after 13 days, doses of 10-87.5 μg/mouse respectively, 10 Gy TBI): 7-90%; visible toxicity (ICR mice; after 13 days, highest dose 87.5 μg/mouse, 10 Gy TBI): no visible toxicity"
